# Data taken from patent publication US12653901B2, “Anti-EDB antibodies and antibody-drug conjugates” (Pfizer Inc., priority 2016, dated 2026).
# Entries after “also recorded” stand apart in the source; their conditions may differ. Read-outs that look alike come from different tables or passages of the source. Where a SMILES comes first, the peptide text is derived from it. [ ]: non-standard residue; d: D form. The star is where a group is joined. Dolaproine = CO[C@@H]([C@@H]1CCCN1)[C@@H](C)C(=O)O; Dil = CC[C@H](C)[C@H](NC)[C@@H](CC(=O)O)OC; Doe = c1ccc(C[C@H](N*)c2nccs2)cc1; Aib = CC(C)(N)C(=O)O
# Assays:
# WI38-VA13 cells = experiment: In vitro cytotoxicity, WI38-VA13; type: cell-based, human; conditions: for IC50: Homo sapiens
# Procedure: (§1) Proliferating WI38-VA13 or HT29 cells were harvested from culture flasks with non-enzymatic cell dissociation buffer and cultured overnight in 96-well plates (Corning) at 1000 cells/well in a humidified chamber (37° C., 5% CO2). The next day, cells were treated with EDB ADCs or isotype control non-EDB-binding ADCs by adding 50 μl of 3× stocks in duplicate at 10 concentrations. In some experiments, cells were plated at 1500 cells/well and treated the same day. Cells were then incubated with EDB ADCs or isotype control non-EDB-binding ADCs for four days. On harvest day, 50 μl of Cell Titer Glo (Promega) was added to the cells and incubated 0.5 hours at room temperature. Luminescence was measured on a Victor plate reader (Perkin Elmer, Waltham, MA). Relative cell viability was determined as a percentage of untreated control wells. IC50 values were calculated using four-parameter logistic model #203 with XLfit v4.2 (IDBS).
# HT29 cells = experiment: In vitro cytotoxicity, HT29; type: cell-based, human; conditions: for IC50: Homo sapiens; for Avg IC50: HT29 (EDB+ FN negative), four days, ng/ml of antibody
# Procedure: as §1
# PDX-NSX-11122 = experiment: In vivo efficacy, PDX-NSX-11122 NSCLC PDX; design: species or system mouse
# Description: (§2) To generate PDX models, tumors were collected from donor animals and tumor fragments approximately 3×3 mm were implanted subcutaneously into the flank of female athymic nude mice (for PDX-NSX-11122 model) or NOD SCID mice (for PDX-PAX-13565 and PDX-PAX-12534 models) by using a 10 gage trocar. When average tumor volume reached approximately 160 to 260 mm^3 the mice were randomized into treatment groups, with 7-10 mice in each group. ADCs or vehicle (PBS) dosing regime and administration route as well as tumor measurement procedures are the same as described above for CLX models. […] Tumor growth inhibition is plotted as an average of tumor size±SEM.
# H-1975 = experiment: In vivo efficacy, H-1975 NSCLC CLX; design: species or system mouse; conditions: intravenous, once every 4 days, doses as in value
# Description: (§3) To generate CLX models, 8×10^6 to 10×10^6 cells of H-1975, HT29, or Ramos tumor lines were implanted into female athymic nude mice subcutaneously. Ramos and H-1975 cells for inoculation were suspended in 50% and 100% […]® (BD Biosciences, biological call culture substrate), respectively. For the Ramos model, the animals received whole body irradiation (4 Gy) before cell inoculation to facilitate the establishment of tumors. When the average tumor volume reached approximately 160 to 320 mm^3, the animals were randomized into treatment groups, with 8-10 mice in each group. ADCs or vehicle (PBS) were administered intravenously on day 0 and then the animals were dosed once every 4 days for 4 to 8 doses. Tumors were measured once or twice weekly and tumor volume was calculated as volume (mm^3)[…](width×width×length)/2.
# HT29 = experiment: In vivo efficacy, HT29 colon CLX; design: species or system mouse; conditions: 3 mg/kg
# Description: as §3
# PDX-PAX-13565 = experiment: In vivo efficacy, PDX-PAX-13565 pancreatic PDX; design: species or system mouse; conditions: 0.3, 1 and 3 mg/kg
# Description: as §2
# PDX-PAX-12534 = experiment: In vivo efficacy, PDX-PAX-12534 pancreatic PDX; design: species or system mouse; conditions: 0.3, 1 and 3 mg/kg
# Description: as §2
# Ramos = experiment: In vivo efficacy, Ramos lymphoma CLX; design: species or system mouse; conditions: 1 and 3 mg/kg
# Description: as §3
# EMT6 syngeneic tumors = experiment: Immune response in treated EMT6 syngeneic tumors; type: in vivo, mouse
# [1] = target: recombinant cynomolgus monkey 7-EDB-89; experiment: SPR binding kinetics to cynomolgus monkey 7-EDB-89
# Procedure: Binding is detected by surface SPR of laser light refracting from the surface. Analysis of the signal kinetics on-rate (ka) and off-rate (kd), allows the discrimination between non-specific and specific interactions.
# The running and sample buffer used was HBS-EP+ buffer (0.01M HEPES, 0.15M NaCl, 3 mM EDTA, and 0.05% v/v surfactant P20 pH7.4). […] All SPR assays were performed at 25° C. with a data collection rate of 1 Hz using a BIACORE® (Cytiva; surface plasmon resonance (SPR) system) T200 instrument (GE Healthcare). The resulting sensorgrams were double referenced (Myszka, D. G., J. Mol. Recognit., 12:279-284, 1999) using both a control surface and buffer injections. The rate constants were determined by fitting the data to a 1:1 Langmuir model with BIACORE® (Cytiva; surface plasmon resonance (SPR) system) T200 evaluation software v2.0 and the equation KD=kd/ka. Each experiment was run in duplicate and the average KD was determined.
# [2] = WI-38 VA13, unconjugated payload, WI38-VA13, read-out: Avg IC50
# [3] = HT-29, unconjugated payload, HT29, read-out: Avg IC50
# recombinant cynomolgus monkey 7-EDB-89, sequence (as listed by the source): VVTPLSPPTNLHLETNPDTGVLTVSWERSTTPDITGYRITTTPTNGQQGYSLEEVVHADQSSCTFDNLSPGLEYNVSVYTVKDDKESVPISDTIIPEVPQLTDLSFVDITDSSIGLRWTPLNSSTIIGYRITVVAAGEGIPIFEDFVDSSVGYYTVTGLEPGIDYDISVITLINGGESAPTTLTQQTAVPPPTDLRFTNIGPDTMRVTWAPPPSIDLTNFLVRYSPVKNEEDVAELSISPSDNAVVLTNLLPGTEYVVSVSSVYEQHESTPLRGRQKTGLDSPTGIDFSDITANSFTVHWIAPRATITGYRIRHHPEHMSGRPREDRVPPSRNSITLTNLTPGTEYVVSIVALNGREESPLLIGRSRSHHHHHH
molecule,measurement,setting,value
CC[C@H](C)[C@@H]([C@@H](CC(=O)N1CCC[C@H]1[C@H](OC)[C@@H](C)C(=O)N[C@@H](Cc1ccccc1)c1nccs1)OC)N(C)C(=O)[C@@H](NC(=O)C(C)(C)N)C(C)C [Payload-0101] (H-[Aib]V[Dil][Dolaproine]-Doe),IC50,"WI38-VA13 cells; WI-38 VA13, read-out: Avg IC50",0.392 nM
same,IC50,"HT29 cells; HT-29, read-out: Avg IC50",0.09 nM
Cc1c[nH]c2c1[C@@]13C[C@@H]1CN(C(=O)C14CC5(C(=O)N6C[C@H]7C[C@@]78C6=CC(=O)c6[nH]cc(C)c68)CC15C4)C3=CC2=O (stereo partly drawn) [Payload-0326],IC50,"WI38-VA13 cells; WI-38 VA13, read-out: Avg IC50",< 0.001 nM
same,IC50,"HT29 cells; HT-29, read-out: Avg IC50",0.049 nM
CC[C@H](C)[C@@H]([C@@H](CC(=O)N1CCC[C@H]1[C@H](OC)[C@@H](C)C(=O)N[C@@H](Cc1ccc(N)cc1)c1nccs1)OC)N(C)C(=O)[C@@H](NC(=O)C(C)(C)N(C)C)C(C)C [Payload-1569],IC50,WI38-VA13 cells; [2],0.269 nM
same,IC50,HT29 cells; [3],0.074 nM
CC[C@H](C)[C@@H]([C@@H](CC(=O)N1CCC[C@H]1[C@H](OC)[C@@H](C)C(=O)N[C@@H](Cc1ccc(CS)cc1)c1nccs1)OC)N(C)C(=O)[C@@H](NC(=O)C(C)(C)N(C)C)C(C)C [Payload-4574],IC50,"WI38-VA13 cells; WI-38 VA13, read-out: Avg IC50",3.54 nM
same,IC50,"HT29 cells; HT-29, read-out: Avg IC50",3.65 nM
CC[C@H](C)[C@@H]([C@@H](CC(=O)N1CCC[C@H]1[C@H](OC)[C@@H](C)C(=O)N[C@@H](Cc1ccc(N)cc1)c1nccs1)OC)N(C)C(=O)[C@@H](NC(=O)[C@]1(C)CCCN1C)C(C)C [Payload-9411],IC50,WI38-VA13 cells; [2],0.519 nM
same,IC50,HT29 cells; [3],0.197 nM
"COc1cc2cc(c1Cl)N(C)C(=O)C[C@H](OC(=O)[C@H](C)N(C)C(=O)CCS)[C@]1(C)O[C@H]1[C@H](C)[C@@H]1C[C@@](O)(NC(=O)O1)[C@H](OC)/C=C/C=C(\C)C2 [Payload-DM1, mertansine, reference compound]",IC50,"WI38-VA13 cells; WI-38 VA13, read-out: Avg IC50",3.06 nM
same,IC50,"HT29 cells; HT-29, read-out: Avg IC50",2.63 nM
ADC1: EDB-L19 antibody conventionally conjugated via cysteine residues to auristatin 0101 with vc linker,Avg IC50,HT29 cells,"15,346 ng/ml"
same,anti-tumor activity,PDX-NSX-11122; 1 mg/kg,delayed tumor growth
same,anti-tumor activity,PDX-NSX-11122; 3 mg/kg,complete regressions
same,anti-tumor activity,"PDX-NSX-11122; intravenous, once every 4 days, doses as in value, listed as EDB-L19-vc-0101",tumor regression in a dose dependent manner at 3 mg/kg and 1.5 mg/kg; also recorded: greater efficacy as compared to isotype negative control ADCs and ADCs that were generated using a disulfide linker
same,anti-tumor activity,H-1975; listed as EDB-L19-vc-0101,"tumor regression in a dose dependent manner at 3 mg/kg, and at as low as 1.5 mg/kg; also recorded: tumor regression at the highest doses evaluated"
same,anti-tumor activity,HT29,tumor regression at the 3 mg/kg dose over time
same,anti-tumor efficacy,PDX-PAX-13565,tumor regression in a dose dependent manner
same,anti-tumor efficacy,PDX-PAX-12534,tumor regression in a dose dependent manner
same,anti-tumor activity,Ramos,tumor regression at the 3 mg/kg dose in a dose dependent manner
same,expression of PDL1,EMT6 syngeneic tumors; treated tumors,increased expression of PDL1
same,infiltration of CD3+ T cells,EMT6 syngeneic tumors; treated tumors vs. vehicle controls,Increased infiltration of CD3+ T cells
ADC5: EDB-L19 antibody conjugated to DM1 with disulfide (diS) linker,Avg IC50,"WI38-VA13 cells; WI38-VA13 (EDB+ FN positive), four days, ng/ml of antibody",0.268 µg/mL
same,Avg IC50,HT29 cells,237 ng/mL
ADC10: EDB-L19 antibody conjugated to auristatin 1569 with vc linker,Avg IC50,HT29 cells,"5,702 ng/ml"
same,anti-tumor activity,H-1975,tumor regression in a dose dependent manner
"Ab1: L19 human monoclonal IgG1 antibody binding EDB; HC SEQ ID NO: 8, LC SEQ ID NO: 15",Kd,[1],188 nM
same,ka,[1],560000 M⁻¹ s⁻¹
same,kd,[1],0.105 s⁻¹
